This passage reports TGI results from PubChem BioAssay (NCI).

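Exposure lasted 48 hours, with cells grown in 96-well plates and compounds tested at five concentrations. TGI marks complete inhibition of growth.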

Among the test systems are HOP-92 NSCLC; CCRF-CEM leukemia; IGROV1 ovarian; U251 CNS; HL-60(TB) leukemia; OVCAR-3 ovarian; K-562 leukemia; NCI/ADR-RES ovarian; ACHN renal; CAKI-1 renal; T-47D breast; SF-268 CNS; NCI-H522 lung; MDA-MB-435; HOP-62 NSCLC; HT29 colon; SK-OV-3 ovarian.
Experiment in all cases: growth of human tumour cells (NCI), 48 h

Turning to `Cc1ccc2c(c1C)CC1(Cc3ccc(C)c(C)c3C1=O)C2=O` (stereo not drawn), the TGI with HOP-92 NSCLC is 87 µM; in the assay with CCRF-CEM leukemia, more than 100 µM; in the assay with IGROV1 ovarian, more than 100 µM; in the assay on U251 CNS, more than 100 µM; in the assay on HL-60(TB) leukemia, more than 100 µM; with OVCAR-3 ovarian, more than 100 µM. Also, the TGI in the assay on K-562 leukemia, in the assay with NCI/ADR-RES ovarian, in the assay on ACHN renal, with CAKI-1 renal, in the assay with T-47D breast and in the assay with SF-268 CNS was more than 100 µM in each case. In addition, the TGI with NCI-H522 lung and with MDA-MB-435 was more than 100 µM in each case.
Consider `O[C@@H]1[C@H](OC2c3ccccc3-c3ccccc32)[C@H](OCc2ccccc2)[C@@H]2OC[C@H]1O2`, for which the TGI in the assay with HOP-92 NSCLC, in the assay on CCRF-CEM leukemia, in the assay with IGROV1 ovarian, with U251 CNS, in the assay with HL-60(TB) leukemia and in the assay with OVCAR-3 ovarian was more than 100 µM in each case. Further, the TGI in the assay on K-562 leukemia was more than 100 µM; in the assay with NCI/ADR-RES ovarian, more than 100 µM; in the assay on ACHN renal it was more than 100 µM; in the assay on CAKI-1 renal, more than 100 µM; with T-47D breast, more than 100 µM; in the assay on HOP-62 NSCLC, 80 µM. For the same compound, the TGI in the assay with SF-268 CNS, in the assay with NCI-H522 lung, in the assay with MDA-MB-435 and in the assay with HT29 colon was more than 100 µM throughout.
In the case of `O=C(O)CCC(NC(=O)c1ccc(Nc2nc3ccc(C(F)(F)F)cc3nc2C(=O)O)cc1)C(=O)O` (stereo not drawn), the TGI in the assay with HOP-92 NSCLC, with CCRF-CEM leukemia, in the assay with IGROV1 ovarian, with U251 CNS, in the assay on HL-60(TB) leukemia and in the assay on OVCAR-3 ovarian was more than 100 µM throughout. Besides, the TGI in the assay on K-562 leukemia, in the assay on NCI/ADR-RES ovarian, with ACHN renal, with T-47D breast, in the assay with HOP-62 NSCLC and with SF-268 CNS was more than 100 µM throughout. The TGI in the assay on NCI-H522 lung, in the assay with MDA-MB-435 and in the assay with HT29 colon was more than 100 µM in each case.
Turning to `O=C(O)c1ccccc1/C=C1\Cc2cc3c(cc2C1=O)CCC3`, the TGI in the assay with CCRF-CEM leukemia was 44.2 µM; in the assay with IGROV1 ovarian it was more than 100 µM; in the assay with U251 CNS it was 94.3 µM; in the assay on HL-60(TB) leukemia it was 27.1 µM; in the assay on OVCAR-3 ovarian, more than 100 µM; in the assay on K-562 leukemia, 51.7 µM. The TGI in the assay on NCI/ADR-RES ovarian was 66.2 µM; with ACHN renal, more than 100 µM; in the assay on T-47D breast, 45.6 µM; with SK-OV-3 ovarian it was more than 100 µM; with HOP-62 NSCLC, 65.2 µM; in the assay on SF-268 CNS, more than 100 µM. In addition, the values for the TGI in the assay with NCI-H522 lung, in the assay on MDA-MB-435 and in the assay with HT29 colon were 45.6 µM, 51.5 µM and 49.1 µM, respectively.
For the compound `Cc1nc2ccccc2n1Cc1nnc(-c2ccccc2)o1`, the TGI with HOP-92 NSCLC, in the assay with CCRF-CEM leukemia, in the assay on IGROV1 ovarian, with U251 CNS, in the assay on HL-60(TB) leukemia and in the assay with OVCAR-3 ovarian was more than 100 µM throughout. Further, the TGI in the assay on K-562 leukemia, in the assay with NCI/ADR-RES ovarian, in the assay on ACHN renal, in the assay on T-47D breast, with SK-OV-3 ovarian and in the assay on HOP-62 NSCLC was more than 100 µM throughout. In addition, the TGI in the assay with SF-268 CNS was more than 100 µM; with NCI-H522 lung, more than 100 µM; in the assay with MDA-MB-435, 0.692 µM; with HT29 colon, more than 100 µM.
For `N#CCC(=O)N/N=C\C(O)C(O)C(O)C(O)CO` (stereo not drawn), the TGI in the assay on CCRF-CEM leukemia, in the assay on IGROV1 ovarian, with HL-60(TB) leukemia, with OVCAR-3 ovarian, in the assay on K-562 leukemia and in the assay with NCI/ADR-RES ovarian was more than 100 µM throughout. The TGI in the assay with ACHN renal, in the assay with CAKI-1 renal, with T-47D breast, in the assay with SK-OV-3 ovarian, in the assay on HOP-62 NSCLC and with SF-268 CNS was more than 100 µM in each case. In addition, the TGI with NCI-H522 lung, in the assay on MDA-MB-435 and in the assay with HT29 colon was more than 100 µM in each case.
`CC(C)(C)n1c(=O)n2c(-c3ccccc3)c(-c3ccccc3)n2c1=O`: the TGI with HOP-92 NSCLC, in the assay with IGROV1 ovarian, in the assay with U251 CNS, with HL-60(TB) leukemia, in the assay with OVCAR-3 ovarian and in the assay on K-562 leukemia was more than 100 µM throughout. Moreover, the TGI in the assay with NCI/ADR-RES ovarian, in the assay with ACHN renal, with CAKI-1 renal, in the assay with T-47D breast, with SK-OV-3 ovarian and with SF-268 CNS was more than 100 µM each time. Further, the figures for the TGI in the assay with NCI-H522 lung, with MDA-MB-435 and in the assay with HT29 colon were 56.5 µM, more than 100 µM and more than 100 µM, respectively.
As to `Cc1[nH]c(=O)c2oc3cc4ccccc4cc3c2c1C(=O)O`, the TGI in the assay with HOP-92 NSCLC, in the assay with IGROV1 ovarian, in the assay on U251 CNS, with HL-60(TB) leukemia, with OVCAR-3 ovarian and with NCI/ADR-RES ovarian was more than 10 µM each time. Further, the TGI with ACHN renal, in the assay with T-47D breast, with SK-OV-3 ovarian, in the assay with SF-268 CNS, with NCI-H522 lung and in the assay with MDA-MB-435 was more than 10 µM throughout. Also, the TGI in the assay with HT29 colon is more than 10 µM.
In the case of `Clc1ccc(C(OCn2ccnc2)c2nc3ccccc3[nH]2)c(Cl)c1` (stereo not drawn), the TGI in the assay on HOP-92 NSCLC is 10.1 µM; in the assay on CCRF-CEM leukemia, more than 100 µM; in the assay with IGROV1 ovarian, more than 100 µM; in the assay on U251 CNS, more than 100 µM; in the assay on HL-60(TB) leukemia, more than 100 µM; in the assay on OVCAR-3 ovarian, more than 100 µM. The TGI with K-562 leukemia, with NCI/ADR-RES ovarian, in the assay on ACHN renal, with CAKI-1 renal, in the assay on T-47D breast and in the assay on HOP-62 NSCLC was more than 100 µM in each case. Besides, the TGI in the assay with SF-268 CNS, with NCI-H522 lung, in the assay on MDA-MB-435 and in the assay on HT29 colon was more than 100 µM in each case.
Take `O=c1oc2ccccc2c(-c2ccc(O)cc2)c1Oc1ccccc1`: the TGI was 26.6 µM with HOP-92 NSCLC; more than 100 µM with CCRF-CEM leukemia; 18.6 µM with IGROV1 ovarian; 24.9 µM with U251 CNS; more than 100 µM in the assay on HL-60(TB) leukemia; more than 63.3 µM with OVCAR-3 ovarian. Besides, the TGI was more than 100 µM in the assay with K-562 leukemia; more than 100 µM in the assay with NCI/ADR-RES ovarian; more than 100 µM with ACHN renal; more than 75.7 µM with CAKI-1 renal; more than 100 µM with T-47D breast; more than 100 µM in the assay on SK-OV-3 ovarian. Besides, the TGI is more than 100 µM in the assay on HOP-62 NSCLC, 25.6 µM in the assay on SF-268 CNS, more than 100 µM with MDA-MB-435 and more than 100 µM in the assay on HT29 colon.
With `Cc1nc2ccc(S(=O)(=O)O)cc2c(=O)n1-c1ccc(C(=O)NN2C(=O)C(Cl)C2c2cccs2)cc1` (stereo not drawn), the TGI with HOP-92 NSCLC is more than 100 µM; in the assay with CCRF-CEM leukemia, more than 100 µM; with U251 CNS, more than 100 µM; in the assay with HL-60(TB) leukemia, 51.8 µM; in the assay with OVCAR-3 ovarian, more than 100 µM; with K-562 leukemia it was more than 100 µM. For the same compound, the TGI was more than 100 µM in the assay on NCI/ADR-RES ovarian; more than 100 µM in the assay with ACHN renal; more than 100 µM in the assay with CAKI-1 renal; more than 100 µM in the assay on T-47D breast; more than 100 µM with SK-OV-3 ovarian; 60.1 µM with HOP-62 NSCLC. The TGI in the assay on SF-268 CNS is 44.3 µM; in the assay with NCI-H522 lung, more than 100 µM; in the assay on MDA-MB-435, 89.8 µM; in the assay on HT29 colon it was more than 100 µM.
As for `CS(=O)(=O)CCC1CCC(=O)O1` (stereo not drawn), the TGI in the assay on HOP-92 NSCLC, in the assay with IGROV1 ovarian, in the assay on U251 CNS, in the assay on HL-60(TB) leukemia, in the assay on OVCAR-3 ovarian and in the assay with K-562 leukemia was more than 100 µM in each case. Besides, the TGI in the assay on NCI/ADR-RES ovarian was more than 100 µM; with ACHN renal, 90.4 µM; with CAKI-1 renal it was more than 100 µM; in the assay with T-47D breast, more than 100 µM; in the assay on HOP-62 NSCLC, more than 100 µM; in the assay on SF-268 CNS it was more than 100 µM. The TGI with NCI-H522 lung, in the assay with MDA-MB-435 and in the assay on HT29 colon was more than 100 µM each time.
In the case of `COC(=O)c1ccc(CCC2=CC(=O)C=CC2=O)cc1`, the TGI in the assay on HOP-92 NSCLC amounted to 25.1 µM; in the assay on CCRF-CEM leukemia, 2 µM; with IGROV1 ovarian, 30.2 µM; in the assay with U251 CNS, 24.8 µM; with HL-60(TB) leukemia, 4.79 µM; with OVCAR-3 ovarian, 23.2 µM. Moreover, the TGI in the assay with K-562 leukemia was 8.9 µM; in the assay on NCI/ADR-RES ovarian, 61.2 µM; in the assay with ACHN renal, 20.4 µM; with CAKI-1 renal, 13.6 µM; with T-47D breast, 8.79 µM; in the assay on HOP-62 NSCLC, 39.3 µM. In addition, the TGI came out at 31.7 µM in the assay with SF-268 CNS, 3.14 µM in the assay with NCI-H522 lung, 28 µM with MDA-MB-435 and 53.4 µM in the assay with HT29 colon.
As to `N#CC1=C(S)N(C2OC(CO)C(O)C(O)C2O)C(c2ccccc2)=CC1c1ccco1` (stereo not drawn), the TGI with HOP-92 NSCLC is more than 100 µM; in the assay on CCRF-CEM leukemia it was more than 100 µM; in the assay with IGROV1 ovarian, more than 100 µM; with U251 CNS it was 53.5 µM; in the assay on HL-60(TB) leukemia, more than 100 µM; in the assay with OVCAR-3 ovarian, more than 100 µM. Moreover, the TGI is more than 100 µM with K-562 leukemia; more than 100 µM in the assay with NCI/ADR-RES ovarian; more than 100 µM with CAKI-1 renal; 99.5 µM with T-47D breast; more than 100 µM in the assay with HOP-62 NSCLC; more than 100 µM in the assay on SF-268 CNS. Further, the TGI with NCI-H522 lung, with MDA-MB-435 and in the assay with HT29 colon was more than 100 µM each time.
